{"source": "PubChem BioAssay (NCI)", "experiment_in_all_cases": "growth of human tumour cells (NCI), 48 h", "key": {"OVCAR-5 ovarian": {"system": "OVCAR-5 ovarian"}, "M14 melanoma": {"system": "M14 melanoma"}, "UO-31 renal": {"system": "UO-31 renal"}, "HS 578T breast": {"system": "HS 578T breast"}, "HOP-62 NSCLC": {"system": "HOP-62 NSCLC"}, "T-47D breast": {"system": "T-47D breast"}, "MALME-3M melanoma": {"system": "MALME-3M melanoma"}, "NCI-H460 lung": {"system": "NCI-H460 lung"}, "EKVX NSCLC": {"system": "EKVX NSCLC"}, "SF-295 CNS": {"system": "SF-295 CNS"}}, "note": "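Briefly, cells in 96-well plates were exposed to five compound concentrations for 48 h, and endpoints were estimated by linear interpolation. GI50 is the concentration that inhibits growth by half. TGI denotes the concentration required for complete inhibition of growth.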", "data": [{"smiles": "O=C1Cc2cc(C(=O)NC3C[C@H]4CC[C@@H](C3)N4S(=O)(=O)CC3CCN(CCCC(F)(F)F)CC3)c(Cl)cc2N1", "note": "(some centres not stated)", "values": [{"measurement": "GI50", "setting": "OVCAR-5 ovarian", "result": "> 100", "unit": "µM"}, {"measurement": "TGI", "setting": "OVCAR-5 ovarian", "result": "> 100", "unit": "µM"}, {"measurement": "GI50", "setting": "M14 melanoma", "result": "> 100", "unit": "µM"}, {"measurement": "TGI", "setting": "M14 melanoma", "result": "> 100", "unit": "µM"}, {"measurement": "GI50", "setting": "UO-31 renal", "result": "> 100", "unit": "µM"}, {"measurement": "TGI", "setting": "UO-31 renal", "result": "> 100", "unit": "µM"}, {"measurement": "GI50", "setting": "HS 578T breast", "result": "> 100", "unit": "µM"}, {"measurement": "TGI", "setting": "HS 578T breast", "result": "> 100", "unit": "µM"}, {"measurement": "GI50", "setting": "HOP-62 NSCLC", "result": "> 100", "unit": "µM"}, {"measurement": "TGI", "setting": "HOP-62 NSCLC", "result": "> 100", "unit": "µM"}, {"measurement": "GI50", "setting": "T-47D breast", "result": "> 100", "unit": "µM"}, {"measurement": "TGI", "setting": "T-47D breast", "result": "> 100", "unit": "µM"}, {"measurement": "GI50", "setting": "MALME-3M melanoma", "result": "> 100", "unit": "µM"}, {"measurement": "TGI", "setting": "MALME-3M melanoma", "result": "> 100", "unit": "µM"}, {"measurement": "GI50", "setting": "NCI-H460 lung", "result": "> 100", "unit": "µM"}, {"measurement": "TGI", "setting": "NCI-H460 lung", "result": "> 100", "unit": "µM"}, {"measurement": "GI50", "setting": "EKVX NSCLC", "result": "> 100", "unit": "µM"}, {"measurement": "TGI", "setting": "EKVX NSCLC", "result": "> 100", "unit": "µM"}, {"measurement": "GI50", "setting": "SF-295 CNS", "result": "> 100", "unit": "µM"}, {"measurement": "TGI", "setting": "SF-295 CNS", "result": "> 100", "unit": "µM"}]}, {"smiles": "O=C1/C=C/[C@@H](O)[C@@H]2C[C@@H](O)C[C@H]2/C=C/CCC[C@H](C(F)(F)F)O1", "values": [{"measurement": "GI50", "setting": "OVCAR-5 ovarian", "result": 0.933, "unit": "µM"}, {"measurement": "TGI", "setting": "OVCAR-5 ovarian", "result": 24.7, "unit": "µM"}, {"measurement": "GI50", "setting": "M14 melanoma", "result": 0.171, "unit": "µM"}, {"measurement": "TGI", "setting": "M14 melanoma", "result": 3.71, "unit": "µM"}, {"measurement": "GI50", "setting": "UO-31 renal", "result": 0.0813, "unit": "µM"}, {"measurement": "TGI", "setting": "UO-31 renal", "result": 2.25, "unit": "µM"}, {"measurement": "GI50", "setting": "HS 578T breast", "result": 0.347, "unit": "µM"}, {"measurement": "TGI", "setting": "HS 578T breast", "result": "> 100", "unit": "µM"}, {"measurement": "GI50", "setting": "HOP-62 NSCLC", "result": 2.14, "unit": "µM"}, {"measurement": "TGI", "setting": "HOP-62 NSCLC", "result": "> 100", "unit": "µM"}, {"measurement": "GI50", "setting": "T-47D breast", "result": 0.184, "unit": "µM"}, {"measurement": "TGI", "setting": "T-47D breast", "result": 0.52, "unit": "µM"}, {"measurement": "GI50", "setting": "MALME-3M melanoma", "result": 0.0437, "unit": "µM"}, {"measurement": "TGI", "setting": "MALME-3M melanoma", "result": 0.292, "unit": "µM"}, {"measurement": "GI50", "setting": "NCI-H460 lung", "result": 9.54, "unit": "µM"}, {"measurement": "TGI", "setting": "NCI-H460 lung", "result": "> 100", "unit": "µM"}, {"measurement": "GI50", "setting": "EKVX NSCLC", "result": 1.33, "unit": "µM"}, {"measurement": "TGI", "setting": "EKVX NSCLC", "result": "> 100", "unit": "µM"}, {"measurement": "GI50", "setting": "SF-295 CNS", "result": "> 27", "unit": "µM"}, {"measurement": "TGI", "setting": "SF-295 CNS", "result": "> 100", "unit": "µM"}]}, {"smiles": "CO[C@H]1C[C@@H]2CC[C@@H](C)[C@@](O)(O2)C(=O)C(=O)N2CCCC[C@H]2C(=O)O[C@H]([C@H](C)C[C@@H]2CC[C@@H](OCCO)[C@H](OC)C2)CC(=O)[C@H](C)C=C(C)[C@@H](O)[C@@H](OC)C(=O)[C@H](C)C[C@H](C)/C=C/C=C/C=C1C", "values": [{"measurement": "GI50", "setting": "OVCAR-5 ovarian", "result": "< 0.01", "unit": "µM"}, {"measurement": "TGI", "setting": "OVCAR-5 ovarian", "result": 20.3, "unit": "µM"}, {"measurement": "GI50", "setting": "M14 melanoma", "result": 3.12, "unit": "µM"}, {"measurement": "TGI", "setting": "M14 melanoma", "result": 20.5, "unit": "µM"}, {"measurement": "GI50", "setting": "UO-31 renal", "result": "< 0.01", "unit": "µM"}, {"measurement": "TGI", "setting": "UO-31 renal", "result": 14.5, "unit": "µM"}, {"measurement": "GI50", "setting": "HS 578T breast", "result": "< 0.01", "unit": "µM"}, {"measurement": "GI50", "setting": "HOP-62 NSCLC", "result": "< 0.01", "unit": "µM"}, {"measurement": "TGI", "setting": "HOP-62 NSCLC", "result": 19.2, "unit": "µM"}, {"measurement": "GI50", "setting": "T-47D breast", "result": "< 0.01", "unit": "µM"}, {"measurement": "TGI", "setting": "T-47D breast", "result": 21.5, "unit": "µM"}, {"measurement": "GI50", "setting": "MALME-3M melanoma", "result": "< 0.01", "unit": "µM"}, {"measurement": "TGI", "setting": "NCI-H460 lung", "result": 19.4, "unit": "µM"}, {"measurement": "GI50", "setting": "EKVX NSCLC", "result": "< 0.01", "unit": "µM"}, {"measurement": "TGI", "setting": "EKVX NSCLC", "result": 21.5, "unit": "µM"}, {"measurement": "GI50", "setting": "SF-295 CNS", "result": "< 0.01", "unit": "µM"}, {"measurement": "TGI", "setting": "SF-295 CNS", "result": 17.3, "unit": "µM"}]}, {"smiles": "CC(=O)[O][Hg][c]1c(C)c(C)cc(C)c1C", "values": [{"measurement": "GI50", "setting": "OVCAR-5 ovarian", "result": 1.94, "unit": "µM"}, {"measurement": "TGI", "setting": "OVCAR-5 ovarian", "result": 3.84, "unit": "µM"}, {"measurement": "GI50", "setting": "M14 melanoma", "result": 1.36, "unit": "µM"}, {"measurement": "TGI", "setting": "M14 melanoma", "result": 2.88, "unit": "µM"}, {"measurement": "GI50", "setting": "UO-31 renal", "result": 1.68, "unit": "µM"}, {"measurement": "TGI", "setting": "UO-31 renal", "result": 3.25, "unit": "µM"}, {"measurement": "GI50", "setting": "HS 578T breast", "result": 0.708, "unit": "µM"}, {"measurement": "TGI", "setting": "HS 578T breast", "result": 4.02, "unit": "µM"}, {"measurement": "GI50", "setting": "HOP-62 NSCLC", "result": 2.02, "unit": "µM"}, {"measurement": "TGI", "setting": "HOP-62 NSCLC", "result": 4.05, "unit": "µM"}, {"measurement": "GI50", "setting": "T-47D breast", "result": 1.68, "unit": "µM"}, {"measurement": "TGI", "setting": "T-47D breast", "result": 4.79, "unit": "µM"}, {"measurement": "GI50", "setting": "MALME-3M melanoma", "result": 1.33, "unit": "µM"}, {"measurement": "TGI", "setting": "MALME-3M melanoma", "result": 2.75, "unit": "µM"}, {"measurement": "GI50", "setting": "NCI-H460 lung", "result": 0.739, "unit": "µM"}, {"measurement": "TGI", "setting": "NCI-H460 lung", "result": 3.09, "unit": "µM"}, {"measurement": "GI50", "setting": "EKVX NSCLC", "result": 1.25, "unit": "µM"}, {"measurement": "TGI", "setting": "EKVX NSCLC", "result": 3.11, "unit": "µM"}, {"measurement": "GI50", "setting": "SF-295 CNS", "result": 1.87, "unit": "µM"}, {"measurement": "TGI", "setting": "SF-295 CNS", "result": 4.14, "unit": "µM"}]}, {"smiles": "CC(=O)c1c(C)[nH]c(-c2nc3ccc(N4CCN(C)CC4)cc3[nH]2)c1-c1ccccc1", "values": [{"measurement": "GI50", "setting": "OVCAR-5 ovarian", "result": 1.12, "unit": "µM"}, {"measurement": "TGI", "setting": "OVCAR-5 ovarian", "result": 22.9, "unit": "µM"}, {"measurement": "GI50", "setting": "M14 melanoma", "result": 1.1, "unit": "µM"}, {"measurement": "TGI", "setting": "M14 melanoma", "result": 19.4, "unit": "µM"}, {"measurement": "GI50", "setting": "UO-31 renal", "result": 0.374, "unit": "µM"}, {"measurement": "TGI", "setting": "UO-31 renal", "result": 11.8, "unit": "µM"}, {"measurement": "GI50", "setting": "HS 578T breast", "result": 0.392, "unit": "µM"}, {"measurement": "TGI", "setting": "HS 578T breast", "result": 17.2, "unit": "µM"}, {"measurement": "GI50", "setting": "HOP-62 NSCLC", "result": 1.01, "unit": "µM"}, {"measurement": "TGI", "setting": "HOP-62 NSCLC", "result": 33.5, "unit": "µM"}, {"measurement": "GI50", "setting": "T-47D breast", "result": 0.703, "unit": "µM"}, {"measurement": "TGI", "setting": "T-47D breast", "result": 36.1, "unit": "µM"}, {"measurement": "GI50", "setting": "MALME-3M melanoma", "result": 0.961, "unit": "µM"}, {"measurement": "TGI", "setting": "MALME-3M melanoma", "result": 12.7, "unit": "µM"}, {"measurement": "GI50", "setting": "NCI-H460 lung", "result": 4.24, "unit": "µM"}, {"measurement": "TGI", "setting": "NCI-H460 lung", "result": 31.4, "unit": "µM"}, {"measurement": "GI50", "setting": "EKVX NSCLC", "result": 2.03, "unit": "µM"}, {"measurement": "TGI", "setting": "EKVX NSCLC", "result": "> 100", "unit": "µM"}, {"measurement": "GI50", "setting": "SF-295 CNS", "result": 2.07, "unit": "µM"}, {"measurement": "TGI", "setting": "SF-295 CNS", "result": 19.2, "unit": "µM"}]}, {"smiles": "O=C1c2ccccc2C(=O)c2c(OCCOCCO)cccc21", "values": [{"measurement": "TGI", "setting": "OVCAR-5 ovarian", "result": "> 100", "unit": "µM"}, {"measurement": "TGI", "setting": "M14 melanoma", "result": "> 100", "unit": "µM"}, {"measurement": "TGI", "setting": "UO-31 renal", "result": "> 100", "unit": "µM"}, {"measurement": "TGI", "setting": "HS 578T breast", "result": 99.7, "unit": "µM"}, {"measurement": "TGI", "setting": "HOP-62 NSCLC", "result": "> 100", "unit": "µM"}, {"measurement": "TGI", "setting": "T-47D breast", "result": "> 100", "unit": "µM"}, {"measurement": "TGI", "setting": "MALME-3M melanoma", "result": "> 100", "unit": "µM"}, {"measurement": "TGI", "setting": "NCI-H460 lung", "result": "> 100", "unit": "µM"}, {"measurement": "TGI", "setting": "EKVX NSCLC", "result": "> 100", "unit": "µM"}, {"measurement": "TGI", "setting": "SF-295 CNS", "result": "> 100", "unit": "µM"}]}]}
